Source: ChEMBL document CHEMBL3885881, “DrugMatrix”

Organism: Rattus norvegicus
Assay: DrugMatrix - Regimen: Daily Repeat
Type: toxicity, organism-based, Sprague-Dawley
Parameters: regimen Daily Repeat, gender Male, age 6-8 weeks
Conditions: in vivo, po, route oral GAVAGE, vehicle .5 % CMC; for URIC ACID / ALANINE AMINOTRANSFERASE / ALBUMIN / ALKALINE PHOSPHATASE / ASPARTATE AMINOTRANSFERASE / BLOOD UREA NITROGEN / CARBON DIOXIDE / CHLORIDE / CHOLESTEROL / CREATINE PHOSPHOKINASE / CREATININE / GLUCOSE / LACTATE DEHYDROGENASE / LIPASE / PHOSPHORUS / POTASSIUM / SODIUM / TOTAL BILIRUBIN / TOTAL PROTEIN: tissue Plasma; for ABSOLUTE BASOPHIL / ABSOLUTE EOSINOPHIL / ABSOLUTE LYMPHOCYTE / ABSOLUTE MONOCYTE / ABSOLUTE SEGMENTED NEUTROPHIL / BASOPHIL / EOSINOPHIL / ERYTHROCYTE COUNT / HEMATOCRIT / HEMOGLOBIN / LEUKOCYTE COUNT / LYMPHOCYTE / MEAN CORPUSCULAR HEMOGLOBIN / MEAN CORPUSCULAR HEMOGLOBIN CONCENTRATION / MEAN CORPUSCULAR VOLUME / MONOCYTE / NEUTROPHIL / NUCLEATED RED BLOOD CELLS / PLATELET COUNT: tissue Blood
[1] = 3 mg/kg, 120 h, dose level Low, time 5 day
[2] = 29 mg/kg, 72 h, dose level High, time 3 day
[3] = 29 mg/kg, 120 h, dose level High, time 5 day

## O=c1[nH]cc(F)c(=O)[nH]1 [FLUOROURACIL]
3 mg/kg, 72 h, dose level Low, time 3 day
  URIC ACID: 2.6 mg/dL
[1]
  ABSOLUTE BASOPHIL: 0 CELLS/uL
  ABSOLUTE EOSINOPHIL: 0 CELLS/uL
  ABSOLUTE LYMPHOCYTE: 14436 CELLS/uL
  ABSOLUTE MONOCYTE: 30.67 CELLS/uL
  ABSOLUTE SEGMENTED NEUTROPHIL: 1566.67 CELLS/uL
  BASOPHIL: 0%
  EOSINOPHIL: 0%
  ERYTHROCYTE COUNT: 6.23 x10E6/uL
  HEMATOCRIT: 38.2%
  HEMOGLOBIN: 14.4 G/DL
  LEUKOCYTE COUNT: 16.03 x10E3/uL
  LYMPHOCYTE: 88.67%
  MEAN CORPUSCULAR HEMOGLOBIN: 23.13 pg
  MEAN CORPUSCULAR HEMOGLOBIN CONCENTRATION: 37.73 G/DL
  MEAN CORPUSCULAR VOLUME: 61.3 fL
  MONOCYTE: 0.33%
  NEUTROPHIL: 11%
  NUCLEATED RED BLOOD CELLS: 0 /100WBC
  PLATELET COUNT: 1198.67 x10E3/uL
  ALANINE AMINOTRANSFERASE: 42.67 u/L
  ALBUMIN: 4.47 G/DL
  ALKALINE PHOSPHATASE: 303.33 u/L
  ASPARTATE AMINOTRANSFERASE: 79 u/L
  BLOOD UREA NITROGEN: 16 mg/dL
  CARBON DIOXIDE: 27.67 mmol/L
  CHLORIDE: 99.67 MEQ/L
  CHOLESTEROL: 71 mg/dL
  CREATINE PHOSPHOKINASE: 253.67 u/L
  CREATININE: 0.22 mg/dL
  GLUCOSE: 146 mg/dL
  LACTATE DEHYDROGENASE: 229 u/L
  LIPASE: 8.33 u/L
  PHOSPHORUS: 11.5 mg/dL
  POTASSIUM: 6.67 MEQ/L
  SODIUM: 144.17 MEQ/L
  TOTAL BILIRUBIN: 0.2 mg/dL
  URIC ACID: 1.6 mg/dL
[2]
  ABSOLUTE BASOPHIL: 0 CELLS/uL
  ABSOLUTE EOSINOPHIL: 63.33 CELLS/uL
  ABSOLUTE LYMPHOCYTE: 11413 CELLS/uL
  ABSOLUTE MONOCYTE: 90.33 CELLS/uL
  ABSOLUTE SEGMENTED NEUTROPHIL: 633.33 CELLS/uL
  BASOPHIL: 0%
  EOSINOPHIL: 0.67%
  ERYTHROCYTE COUNT: 5.41 x10E6/uL
  HEMATOCRIT: 34.9%
  HEMOGLOBIN: 13.17 G/DL
  LEUKOCYTE COUNT: 12.2 x10E3/uL
  LYMPHOCYTE: 93.67%
  MEAN CORPUSCULAR HEMOGLOBIN: 24.33 pg
  MEAN CORPUSCULAR HEMOGLOBIN CONCENTRATION: 37.73 G/DL
  MEAN CORPUSCULAR VOLUME: 64.5 fL
  MONOCYTE: 0.67%
  NEUTROPHIL: 5%
  NUCLEATED RED BLOOD CELLS: 0.33 /100WBC
  PLATELET COUNT: 1461.33 x10E3/uL
  ALANINE AMINOTRANSFERASE: 43.33 u/L
  ALBUMIN: 4.47 G/DL
  ALKALINE PHOSPHATASE: 451.67 u/L
  ASPARTATE AMINOTRANSFERASE: 81.67 u/L
  BLOOD UREA NITROGEN: 15.67 mg/dL
  CARBON DIOXIDE: 26.33 mmol/L
  CHLORIDE: 101.67 MEQ/L
  CHOLESTEROL: 58.67 mg/dL
  CREATINE PHOSPHOKINASE: 429.33 u/L
  CREATININE: 0.19 mg/dL
  GLUCOSE: 206.33 mg/dL
  LACTATE DEHYDROGENASE: 150.67 u/L
  LIPASE: 8 u/L
  PHOSPHORUS: 12.07 mg/dL
  POTASSIUM: 6.46 MEQ/L
  SODIUM: 143.2 MEQ/L
  TOTAL BILIRUBIN: 0.17 mg/dL
  TOTAL PROTEIN: 6.07 G/DL
  URIC ACID: 2.17 mg/dL
[3]
  ABSOLUTE BASOPHIL: 0 CELLS/uL
  ABSOLUTE EOSINOPHIL: 58 CELLS/uL
  ABSOLUTE LYMPHOCYTE: 4679.33 CELLS/uL
  ABSOLUTE MONOCYTE: 33 CELLS/uL
  ABSOLUTE SEGMENTED NEUTROPHIL: 263 CELLS/uL
  BASOPHIL: 0%
  EOSINOPHIL: 1%
  ERYTHROCYTE COUNT: 6.26 x10E6/uL
  HEMATOCRIT: 39%
  HEMOGLOBIN: 15.3 G/DL
  LEUKOCYTE COUNT: 5.03 x10E3/uL
  LYMPHOCYTE: 93%
  MEAN CORPUSCULAR HEMOGLOBIN: 24.43 pg
  MEAN CORPUSCULAR HEMOGLOBIN CONCENTRATION: 39.23 G/DL
  MEAN CORPUSCULAR VOLUME: 62.37 fL
  MONOCYTE: 0.67%
  NEUTROPHIL: 5.33%
  NUCLEATED RED BLOOD CELLS: 0 /100WBC
  PLATELET COUNT: 964.67 x10E3/uL
  ALANINE AMINOTRANSFERASE: 23.67 u/L
  ALBUMIN: 4.03 G/DL
  ALKALINE PHOSPHATASE: 148.33 u/L
  ASPARTATE AMINOTRANSFERASE: 75.67 u/L
  BLOOD UREA NITROGEN: 18.67 mg/dL
  CARBON DIOXIDE: 25 mmol/L
  CHLORIDE: 102.67 MEQ/L
  CHOLESTEROL: 89.67 mg/dL
  CREATINE PHOSPHOKINASE: 751.33 u/L
  CREATININE: 0.12 mg/dL
  GLUCOSE: 106.67 mg/dL
  LACTATE DEHYDROGENASE: 166.33 u/L
  LIPASE: 7.33 u/L
  PHOSPHORUS: 7.93 mg/dL
  POTASSIUM: 5.82 MEQ/L
  SODIUM: 150.33 MEQ/L
  TOTAL BILIRUBIN: 0.17 mg/dL
  TOTAL PROTEIN: 5.57 G/DL
  URIC ACID: 0.93 mg/dL
